From patent US4435569A, “5-[Substituted amino methyl]pyrrolo[2,3-d]pyrimidine-4-one” (Takeda Chemical Industries, Ltd., priority 1981, dated 1984)
Counter-ions that a name gives are not always drawn.

How the values were obtained:
[1] = system: Sarcoma 180; experiment: Growth inhibition of subcutaneously transplanted Sarcoma 180 in ICR mouse (tumor weight); type: in vivo; conditions: 1×10^6 cells s.c., 0.5 mg/kg i.p. once daily for 20 consecutive days from 24 h, day 35
Method: (§1) One×10^6 Sarcoma 180 cells were subcutaneously transplanted into the right groin of an ICR mouse weighing about 20 grams and starting 24 hours after transplantation, 0.5 mg/kg of the compound of Example 1 in distilled water for injection was intraperitoneally administered once daily for 20 consecutive days. On day 35 after transplantation, the tumorous node was incised, weighed and compared with the specimen of the control (without medication) group. The percent inhibition was 58% relative to the control.

[2] = system: Ehlrich carcinoma cells; experiment: Growth inhibition of transplanted Ehrlich carcinoma in mice (Experimental Example 1 repeated); type: in vivo, mouse; conditions: mice with Ehrlich carcinoma; as Experimental Example 1: 0.5 mg/kg i.p. once daily for 20 days; day 35
Method: as §1
The experiment described in Experimental Example 1 was repeated except that mice transplanted with Ehlrich carcinoma cells were employed.

[3] = system: L5178Y cells; experiment: Inhibitory effect upon the multiplication of tumor cells (L5178Y); type: cell-based; conditions: Mus musculus, RPMI1640 + 10% fetal calf serum, 48 hours, 37° C., concentration giving cell count of 50% of control, read-out: ED50 (the source's name)
Method: Inhibitory effect upon the multiplication of tumor cells
The inhibitory effects of compound (I) upon the multiplication of cells were detected using L5178Y cells (tumor cell) in RPMI1640 medium+10% fetal calf serum for 48 hours at 37° C.
The result was expressed in the concentration of the drug giving a cell count of 50% (ED50) with the average number of cells for the control (not medicated) group on the 2nd day being taken as 100%.

| IC50 [3] | SMILES | percent inhibition (tumor weight relative to control) [1] | percent inhibition rate (tumor weight relative to control) [2] |
| --- | --- | --- | --- |
|  | CCCNCc1c[nH]c2nc(N)[nH]c(=O)c12 [Example 1, 2-amino-5-propylaminomethylpyrrolo[2,3-d]pyrimidin-4-one (dihydrochloride)] | 58% | 75% |
| 40 µg/mL | Nc1nc2[nH]cc(CNC3CCCC3)c2c(=O)[nH]1 [Example 2, 2-amino-5-cyclopentylaminomethylpyrrolo[2,3-d]pyrimidin-4-one(dihydrochloride)] |  |  |
| 120 µg/mL | Nc1nc2[nH]cc(CN3CCCCC3)c2c(=O)[nH]1 [Example 3, 2-amino-5-piperidinomethylpyrrolo[2,3-d]pyrimidin-4-one (dihydrochloride)] |  |  |
| 30 µg/mL | Nc1nc2[nH]cc(CNCc3ccccc3)c2c(=O)[nH]1 [Example 4, 2-amino-5-benzylaminomethylpyrrolo[2,3-d]pyrimidin-4-one] |  |  |
| > 200 µg/mL | Nc1nc2[nH]cc(CN[C@H]3C=C[C@H](O)[C@@H]3O)c2c(=O)[nH]1 [Q base, reference compound] |  |  |
